Converted amounts (≈) assume the structure as drawn. Positions of bridges follow the written chain, without caps; N, C: chain ends. Non-standard residues stand in square brackets, D forms with d. Residues, ends and D or L forms follow the SMILES beside them. *: point of attachment. Benzoyl(4-CF3) = O=C(c1ccc(C(F)(F)F)cc1)*; X7 = O=C(c1cc(F)cc(C(F)(F)F)c1)*; X8 = O=C(c1ccc(C(F)(F)F)cc1Cl)*; X6 = O=C(c1ccc(F)c(Cl)c1)*; Nonanoyl = CCCCCCCCC(=O)*; X5 = Cc1cc(C(=O)*)ccc1Cl; Dab = NCC[C@H](N)C(=O)O; Abu = CC[C@H](N)C(=O)O; Dap = NC[C@H](N)C(=O)O
Assays:
Enterobacter cloacae = tested on: Enterobacter cloacae
Summary of the method: (§1)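 Broth microdilution, CAMHB, per CLSI M100-S18; compounds as TFA salts; polymyxin B (sulphate) control; read-out MIC.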

Klebsiella pneumoniae = tested on: Klebsiella pneumoniae
Summary of the method: as §1

Pseudomonas aeruginosa = tested on: Pseudomonas aeruginosa
Summary of the method: as §1

Acinetobacter baumannii = tested on: Acinetobacter baumannii
Summary of the method: as §1

P. aeruginosa ATCC 27853 = assay: In vivo efficacy in mouse blood infection model (neutropenic Swiss mice); conditions: compound, free base 4 mg/kg intravenously 2 h after inoculation, blood at 4 h
Summary of the method: (§2)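 Activity expressed as Δlog10 CFU/mL blood, treated minus saline control, 4 h after a single 4 mg/kg (free base) i.v. dose given 2 h post-infection. Bloodstream infection from i.v. early log-phase inoculum in Swiss mice made neutropenic by i.p. cyclophosphamide on days −4 (150 mg/kg) and −1 (100 mg/kg).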

A. baumannii ATCC 19606 = assay: as above; conditions: compound, free base 4 mg/kg intravenously 2 h after inoculation, blood at 4 h
Summary of the method: as §2

[1] = tested on: K. pneumoniae FADDI-KP032; assay: as above; conditions: compound, free base 4 mg/kg intravenously 2 h after inoculation, blood at 4 h
Summary of the method: as §2

Compound	Minimum inhibitory concentration, Ec FADDI-EC001 (Enterobacter cloacae)	Minimum inhibitory concentration, Ec FADDI-EC003 (Enterobacter cloacae)	Minimum inhibitory concentration, Ec FADDI-EC006 (Enterobacter cloacae)	MIC (Klebsiella pneumoniae)	MIC (Pseudomonas aeruginosa)	Minimum inhibitory concentration, Pa ATCC 27853 (Pseudomonas aeruginosa)	Minimum inhibitory concentration, Pa FADDI-PA022 (Pseudomonas aeruginosa)	Minimum inhibitory concentration, Pa FADDI-PA025 (Pseudomonas aeruginosa)	MIC (Acinetobacter baumannii)	Minimum inhibitory concentration, Ab A ATCC 17978 (Acinetobacter baumannii)	Minimum inhibitory concentration, Ab ATCC 19606 (Acinetobacter baumannii)	Minimum inhibitory concentration, Ab FADDI-AB034 (Acinetobacter baumannii)	Δ log (Treated-Control at 4 h) (P. aeruginosa ATCC 27853)	Δ log (Treated-Control at 4 h) (A. baumannii ATCC 19606)	Δ log (Treated-Control at 4 h) [1]
CCCCCCCCC(=O)N[C@@H](CCN)C(=O)N[C@H](C(=O)N[C@@H](CN)C(=O)N[C@H]1CCNC(=O)[C@H]([C@@H](C)O)NC(=O)[C@H](CCN)NC(=O)[C@H](CCN)NC(=O)[C@H]([C@@H](C)O)NC(=O)[C@@H](CC(C)C)NC(=O)[C@H](CCN)NC1=O)[C@@H](C)O [Compound 58] (Nonanoyl-[Dab]T[Dap][Dab][Dab][dL]T[Dab][Dab]T; lactam 4-C)	0.25 µg/mL (≈ 0.219 µM)	0.25 µg/mL (≈ 0.219 µM)	0.5 µg/mL (≈ 0.437 µM)	0.25 µg/mL (≈ 0.219 µM)	0.5 µg/mL (≈ 0.437 µM)	0.5 µg/mL (≈ 0.437 µM)	2 µg/mL (≈ 1.75 µM)	2 µg/mL (≈ 1.75 µM)	0.25 µg/mL (≈ 0.219 µM)	0.5 µg/mL (≈ 0.437 µM)	0.25 µg/mL (≈ 0.219 µM)	1 µg/mL (≈ 0.875 µM)	−3.00 log10 CFU/mL	−2.15 log10 CFU/mL	−3.21 log10 CFU/mL
CC[C@@H]1NC(=O)[C@@H](CC(C)C)NC(=O)[C@H](CCN)NC(=O)[C@@H](NC(=O)[C@H](CN)NC(=O)[C@@H](NC(=O)[C@H](CCN)NC(=O)c2ccc(C(F)(F)F)cc2)[C@@H](C)O)CCNC(=O)[C@H]([C@@H](C)O)NC(=O)[C@H](CCN)NC(=O)[C@H](CCN)NC1=O [Compound 74] ({Benzoyl(4-CF3)}-[Dab]T[Dap][Dab][Dab][dL][Abu][Dab][Dab]T; lactam 4-C)	<0.125 µg/mL	0.25 µg/mL (≈ 0.216 µM)	2 µg/mL (≈ 1.73 µM)	0.25 µg/mL (≈ 0.216 µM)	0.5 µg/mL (≈ 0.431 µM)	0.5 µg/mL (≈ 0.431 µM)	0.5 µg/mL (≈ 0.431 µM)	2 µg/mL (≈ 1.73 µM)	0.5 µg/mL (≈ 0.431 µM)	0.5 µg/mL (≈ 0.431 µM)	0.5 µg/mL (≈ 0.431 µM)	1 µg/mL (≈ 0.863 µM)	−3.10 log10 CFU/mL	−2.34 log10 CFU/mL	−2.94 log10 CFU/mL
CC[C@@H]1NC(=O)[C@@H](CC(C)C)NC(=O)[C@H](CCN)NC(=O)[C@@H](NC(=O)[C@H](CN)NC(=O)[C@@H](NC(=O)[C@H](CCN)NC(=O)c2ccc(Cl)c(C)c2)[C@@H](C)O)CCNC(=O)[C@H]([C@@H](C)O)NC(=O)[C@H](CCN)NC(=O)[C@H](CCN)NC1=O [Compound 104] (X5-[Dab]T[Dap][Dab][Dab][dL][Abu][Dab][Dab]T; lactam 4-C)	0.5 µg/mL (≈ 0.439 µM)	0.25 µg/mL (≈ 0.219 µM)	0.5 µg/mL (≈ 0.439 µM)	1 µg/mL (≈ 0.877 µM)	0.5 µg/mL (≈ 0.439 µM)	0.5 µg/mL (≈ 0.439 µM)	0.5 µg/mL (≈ 0.439 µM)	2 µg/mL (≈ 1.75 µM)	1 µg/mL (≈ 0.877 µM)	0.5 µg/mL (≈ 0.439 µM)	1 µg/mL (≈ 0.877 µM)	0.25 µg/mL (≈ 0.219 µM)	−3.08 log10 CFU/mL	−1.35 log10 CFU/mL	−3.23 log10 CFU/mL
CC[C@@H]1NC(=O)[C@@H](CC(C)C)NC(=O)[C@H](CCN)NC(=O)[C@@H](NC(=O)[C@H](CN)NC(=O)[C@@H](NC(=O)[C@H](CCN)NC(=O)c2cc(F)cc(C(F)(F)F)c2)[C@@H](C)O)CCNC(=O)[C@H]([C@@H](C)O)NC(=O)[C@H](CCN)NC(=O)[C@H](CCN)NC1=O [Compound 108] (X7-[Dab]T[Dap][Dab][Dab][dL][Abu][Dab][Dab]T; lactam 4-C)	1 µg/mL (≈ 0.849 µM)	0.5 µg/mL (≈ 0.425 µM)	0.5 µg/mL (≈ 0.425 µM)	0.25 µg/mL (≈ 0.212 µM)	0.5 µg/mL (≈ 0.425 µM)	0.5 µg/mL (≈ 0.425 µM)	0.5 µg/mL (≈ 0.425 µM)	2 µg/mL (≈ 1.7 µM)	0.5 µg/mL (≈ 0.425 µM)	0.5 µg/mL (≈ 0.425 µM)	0.5 µg/mL (≈ 0.425 µM)	0.5 µg/mL (≈ 0.425 µM)	−2.32 log10 CFU/mL	−1.82 log10 CFU/mL	−2.84 log10 CFU/mL
CC[C@@H]1NC(=O)[C@@H](CC(C)C)NC(=O)[C@H](CCN)NC(=O)[C@@H](NC(=O)[C@H](CN)NC(=O)[C@@H](NC(=O)[C@H](CCN)NC(=O)c2ccc(C(F)(F)F)cc2Cl)[C@@H](C)O)CCNC(=O)[C@H]([C@@H](C)O)NC(=O)[C@H](CCN)NC(=O)[C@H](CCN)NC1=O [Compound 109] (X8-[Dab]T[Dap][Dab][Dab][dL][Abu][Dab][Dab]T; lactam 4-C)	1 µg/mL (≈ 0.838 µM)	<0.125 µg/mL	0.25 µg/mL (≈ 0.209 µM)	0.25 µg/mL (≈ 0.209 µM)	0.5 µg/mL (≈ 0.419 µM)	0.5 µg/mL (≈ 0.419 µM)	0.5 µg/mL (≈ 0.419 µM)	2 µg/mL (≈ 1.68 µM)	0.25 µg/mL (≈ 0.209 µM)	1 µg/mL (≈ 0.838 µM)	0.25 µg/mL (≈ 0.209 µM)	1 µg/mL (≈ 0.838 µM)	−2.68 log10 CFU/mL	−1.54 log10 CFU/mL	−3.47 log10 CFU/mL
CC[C@@H]1NC(=O)[C@@H](CC(C)C)NC(=O)[C@H](CCN)NC(=O)[C@@H](NC(=O)[C@H](CN)NC(=O)[C@@H](NC(=O)[C@H](CCN)NC(=O)c2ccc(F)c(Cl)c2)[C@@H](C)O)CCNC(=O)[C@H]([C@@H](C)O)NC(=O)[C@H](CCN)NC(=O)[C@H](CCN)NC1=O [Compound 110] (X6-[Dab]T[Dap][Dab][Dab][dL][Abu][Dab][Dab]T; lactam 4-C)	1 µg/mL (≈ 0.874 µM)	1 µg/mL (≈ 0.874 µM)	0.5 µg/mL (≈ 0.437 µM)	0.25 µg/mL (≈ 0.219 µM)	0.5 µg/mL (≈ 0.437 µM)	0.5 µg/mL (≈ 0.437 µM)	0.5 µg/mL (≈ 0.437 µM)	1 µg/mL (≈ 0.874 µM)	2 µg/mL (≈ 1.75 µM)	0.5 µg/mL (≈ 0.437 µM)	2 µg/mL (≈ 1.75 µM)	0.5 µg/mL (≈ 0.437 µM)	−3.30 log10 CFU/mL	−1.57 log10 CFU/mL	−2.50 log10 CFU/mL
